These are literature values, as cited in PMC6597953, “Taking Advantage of the Selectivity of Histone Deacetylases and Phosphodiesterase Inhibitors to Design Better Therapeutic Strategies to Treat Alzheimer’s Disease” (Frontiers in Aging Neuroscience, 2019).

What all share (assay type): biochemical
The target in one data set is HDAC1 (Homo sapiens, UniProt Q13547). In words: IC50 of HDAC1 inhibition (assay not described); AcH3K9 western blot in SH-SY5Y cells at […]. For orientation: In western blotting, separated proteins are transferred to a membrane and probed.
The target of a further data set is HDAC2 (Homo sapiens, UniProt Q92769). In words: IC50 of HDAC2 inhibition (assay not described).
A further data set concerns the target T1, HDAC6 (Homo sapiens, UniProt Q9UBN7).
T1 sequence (Q9UBN7 1-1215): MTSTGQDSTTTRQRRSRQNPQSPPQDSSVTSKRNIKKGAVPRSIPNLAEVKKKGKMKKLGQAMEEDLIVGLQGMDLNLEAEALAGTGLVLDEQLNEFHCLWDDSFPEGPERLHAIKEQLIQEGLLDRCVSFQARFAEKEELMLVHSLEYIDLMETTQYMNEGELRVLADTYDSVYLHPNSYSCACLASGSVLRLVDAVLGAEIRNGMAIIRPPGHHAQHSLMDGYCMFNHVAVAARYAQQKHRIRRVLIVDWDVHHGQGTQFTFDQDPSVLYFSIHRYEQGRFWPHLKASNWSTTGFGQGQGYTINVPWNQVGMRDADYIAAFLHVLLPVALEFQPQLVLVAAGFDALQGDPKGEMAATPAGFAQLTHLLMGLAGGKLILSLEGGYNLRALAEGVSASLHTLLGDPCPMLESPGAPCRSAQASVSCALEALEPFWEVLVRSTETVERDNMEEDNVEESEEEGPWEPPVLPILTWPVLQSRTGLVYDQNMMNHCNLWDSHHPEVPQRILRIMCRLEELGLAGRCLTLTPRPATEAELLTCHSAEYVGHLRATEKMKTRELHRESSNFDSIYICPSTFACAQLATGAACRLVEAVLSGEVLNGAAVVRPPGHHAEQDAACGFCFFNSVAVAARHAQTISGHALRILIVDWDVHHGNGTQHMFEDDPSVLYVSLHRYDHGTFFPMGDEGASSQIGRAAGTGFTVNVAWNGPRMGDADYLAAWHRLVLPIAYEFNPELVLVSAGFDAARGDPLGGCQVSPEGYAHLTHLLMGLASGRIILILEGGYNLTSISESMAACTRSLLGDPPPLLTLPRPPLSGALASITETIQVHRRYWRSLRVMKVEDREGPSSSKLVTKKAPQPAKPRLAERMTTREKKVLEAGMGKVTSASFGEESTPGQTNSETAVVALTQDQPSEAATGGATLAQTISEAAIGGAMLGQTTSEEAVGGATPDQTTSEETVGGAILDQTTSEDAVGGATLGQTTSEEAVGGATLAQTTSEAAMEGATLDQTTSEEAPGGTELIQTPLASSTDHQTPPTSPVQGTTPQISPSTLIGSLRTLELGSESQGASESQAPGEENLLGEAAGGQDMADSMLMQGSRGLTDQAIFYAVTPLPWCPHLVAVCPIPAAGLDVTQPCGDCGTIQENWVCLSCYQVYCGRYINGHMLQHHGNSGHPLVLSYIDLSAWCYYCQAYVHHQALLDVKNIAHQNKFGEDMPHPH
The experiment in a line: IC50 of HDAC6 inhibition (assay not described); supported by alpha-tubulin acetylation western blot in SH-SY5Y cells.

The next data set has as its target T2, PDE9 (Homo sapiens, UniProt O76083).
T2 construct: gene PDE9A
The experiment in a line: IC50 of PDE9 inhibition (assay not described); supported by pCREB western blot in SH-SY5Y cells.

HDAC2, sequence (Q92769 whole entry): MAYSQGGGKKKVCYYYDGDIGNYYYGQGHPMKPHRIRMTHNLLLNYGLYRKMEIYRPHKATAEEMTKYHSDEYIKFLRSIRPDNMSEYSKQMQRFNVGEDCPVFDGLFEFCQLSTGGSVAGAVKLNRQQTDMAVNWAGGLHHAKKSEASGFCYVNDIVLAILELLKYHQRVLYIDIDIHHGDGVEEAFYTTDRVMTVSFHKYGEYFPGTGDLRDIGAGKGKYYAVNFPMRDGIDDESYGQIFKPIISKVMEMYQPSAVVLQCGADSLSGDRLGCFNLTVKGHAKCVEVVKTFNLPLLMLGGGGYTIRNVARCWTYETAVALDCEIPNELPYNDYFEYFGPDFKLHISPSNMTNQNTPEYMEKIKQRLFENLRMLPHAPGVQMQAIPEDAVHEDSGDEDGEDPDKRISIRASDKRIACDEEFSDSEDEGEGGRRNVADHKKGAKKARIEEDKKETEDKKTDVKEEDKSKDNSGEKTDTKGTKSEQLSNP
T2 sequence (O76083 whole entry): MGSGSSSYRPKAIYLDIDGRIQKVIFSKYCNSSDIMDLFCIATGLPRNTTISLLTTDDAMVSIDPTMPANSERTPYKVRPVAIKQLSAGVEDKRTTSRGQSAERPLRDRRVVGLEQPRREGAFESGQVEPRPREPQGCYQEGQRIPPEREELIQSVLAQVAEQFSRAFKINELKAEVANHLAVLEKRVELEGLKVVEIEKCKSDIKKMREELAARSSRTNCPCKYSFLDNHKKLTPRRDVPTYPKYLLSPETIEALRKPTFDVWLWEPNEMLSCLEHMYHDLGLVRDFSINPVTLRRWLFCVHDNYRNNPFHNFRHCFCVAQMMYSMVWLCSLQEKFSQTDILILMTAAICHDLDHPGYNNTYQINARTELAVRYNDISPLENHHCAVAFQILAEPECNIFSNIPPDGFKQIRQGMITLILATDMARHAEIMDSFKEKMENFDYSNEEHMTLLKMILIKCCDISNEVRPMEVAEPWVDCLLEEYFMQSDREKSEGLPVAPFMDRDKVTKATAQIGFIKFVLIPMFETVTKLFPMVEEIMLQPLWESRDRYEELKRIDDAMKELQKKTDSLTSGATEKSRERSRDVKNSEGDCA
HDAC1, sequence (Q13547 whole entry): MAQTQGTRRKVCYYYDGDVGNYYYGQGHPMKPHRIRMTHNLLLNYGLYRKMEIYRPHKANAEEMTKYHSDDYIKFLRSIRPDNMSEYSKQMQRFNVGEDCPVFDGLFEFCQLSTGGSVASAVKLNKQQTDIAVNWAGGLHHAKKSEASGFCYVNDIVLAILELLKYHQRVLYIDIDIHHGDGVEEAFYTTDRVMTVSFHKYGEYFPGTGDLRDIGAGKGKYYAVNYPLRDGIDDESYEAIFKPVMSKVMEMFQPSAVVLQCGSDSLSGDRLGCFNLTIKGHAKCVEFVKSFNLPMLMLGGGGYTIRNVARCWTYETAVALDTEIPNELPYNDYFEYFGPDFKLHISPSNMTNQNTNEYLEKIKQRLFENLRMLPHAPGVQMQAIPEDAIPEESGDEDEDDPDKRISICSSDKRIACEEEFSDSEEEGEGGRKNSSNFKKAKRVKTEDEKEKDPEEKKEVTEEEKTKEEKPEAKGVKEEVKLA

On to CM-695, for which the IC50 (as a rule, the midpoint of a concentration-inhibition curve) is 593 nM on HDAC1, 3.53 µM at HDAC2, 40 nM at HDAC6 and 107 nM at PDE9.
